The target in assay [1] is T1, D(1A) dopamine receptor (Sus scrofa, UniProt P50130). Kind of assay: Binding affinity (low) towards porcine dopamine receptor 1 by using [3H]-SCH- 23390 (0.3 nM) as radioligand.
In assay [2] the target is T2, D(4) dopamine receptor (Homo sapiens, UniProt P21917).
T2 sequence (P21917 whole entry): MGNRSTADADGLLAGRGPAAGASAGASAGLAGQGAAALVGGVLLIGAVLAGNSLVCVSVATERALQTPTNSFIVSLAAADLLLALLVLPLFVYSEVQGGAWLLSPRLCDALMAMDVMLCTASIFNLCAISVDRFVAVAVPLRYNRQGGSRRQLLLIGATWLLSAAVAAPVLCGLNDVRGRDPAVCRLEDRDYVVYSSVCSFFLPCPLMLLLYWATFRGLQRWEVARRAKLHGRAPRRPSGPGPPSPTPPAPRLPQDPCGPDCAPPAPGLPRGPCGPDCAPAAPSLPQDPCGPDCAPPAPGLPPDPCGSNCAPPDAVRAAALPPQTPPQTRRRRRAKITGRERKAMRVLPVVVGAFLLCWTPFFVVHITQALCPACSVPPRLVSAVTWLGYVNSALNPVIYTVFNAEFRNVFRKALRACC
Kind of assay: biochemical. The assay is classed as cell-based, ovary.

For assay [3], the target named is T2, D(4) dopamine receptor. In words: biochemical. The format is cell-based, ovary. This is another data set of the same source.
The target in assay [4] is T3, D(2) dopamine receptor (Homo sapiens, UniProt P14416). Kind of assay: Low binding affinity towards human dopamine receptor 2 (long) expressed in Chinese hamster ovary cells using [3H]spiperone (0.5 nM) as radioligand. The format is cell-based.
For assay [5], the target named is T3, D(2) dopamine receptor. In words: High binding affinity towards human dopamine receptor 2 (long) expressed in Chinese hamster ovary cells using [3H]spiperone (0.5 nM) as radioligand. The assay is classed as cell-based.
Assay [6] addresses T3, D(2) dopamine receptor. Kind of assay: Low binding affinity towards human dopamine receptor 2 (short) expressed in Chinese hamster ovary cells using [3H]spiperone (0.5 nM) as radioligand. The assay is classed as cell-based.
Assay [7] deals with T3, D(2) dopamine receptor. Kind of assay: biochemical. The format is cell-based, ovary.
Assay [8] addresses T4, D(3) dopamine receptor (Homo sapiens, UniProt P35462). Kind of assay: Effective concentration against dopamine D3 receptor.
The target in assay [9] is T4, D(3) dopamine receptor. In words: biochemical.
In assay [10] the target is T4, D(3) dopamine receptor. In words: biochemical. This is another data set of the same source.
Assay [11] concerns the target T4, D(3) dopamine receptor. Kind of assay: Binding affinity towards dopamine D3 receptor.
For assay [12], the target named is T3, D(2) dopamine receptor. Kind of assay: Binding affinity towards human dopamine receptor 2 (long) expressed in Chinese hamster ovary cells using [3H]spiperone (0.5 nM) as radioligand. The format is cell-based.
In assay [13] the target is T3, D(2) dopamine receptor. Kind of assay: Binding affinity towards human dopamine receptor 2 (short) expressed in Chinese hamster ovary cells using [3H]spiperone (0.5 nM) as radioligand. The format is cell-based.
The target of assay [14] is T1, D(1A) dopamine receptor. In words: Binding affinity towards porcine dopamine receptor 1 against radioligand [3H]-SCH- 23390.
The target of assay [15] is T4, D(3) dopamine receptor. Kind of assay: Binding affinity towards human dopamine receptor 3 expressed in Chinese hamster ovary cells using [3H]spiperone (0.5 nM) as radioligand. The assay is classed as cell-based.
For assay [16], the target named is T2, D(4) dopamine receptor. In words: Binding affinity towards human dopamine receptor 4.4 expressed in Chinese hamster ovary cells using [3H]spiperone (0.5 nM) as radioligand. The format is cell-based.
In assay [17] the target is T1, D(1A) dopamine receptor. Kind of assay: Binding affinity (low) towards porcine dopamine receptor 1 against radioligand [3H]-SCH- 23390.

Each structure is given as a SMILES string.

Broadly, the Ki is the equilibrium dissociation constant of an inhibitor or competing ligand from its target. Read a low Ki as a stronger hold on the target. A word on the EC50: it is the concentration giving half of the maximal effect. A high value points to a less potent agent. What is called pKi is the Ki on a negative log10 scale, so that one unit is a factor of ten. High values mean a low Ki, low ones a high Ki.

T3 sequence (P14416 whole entry): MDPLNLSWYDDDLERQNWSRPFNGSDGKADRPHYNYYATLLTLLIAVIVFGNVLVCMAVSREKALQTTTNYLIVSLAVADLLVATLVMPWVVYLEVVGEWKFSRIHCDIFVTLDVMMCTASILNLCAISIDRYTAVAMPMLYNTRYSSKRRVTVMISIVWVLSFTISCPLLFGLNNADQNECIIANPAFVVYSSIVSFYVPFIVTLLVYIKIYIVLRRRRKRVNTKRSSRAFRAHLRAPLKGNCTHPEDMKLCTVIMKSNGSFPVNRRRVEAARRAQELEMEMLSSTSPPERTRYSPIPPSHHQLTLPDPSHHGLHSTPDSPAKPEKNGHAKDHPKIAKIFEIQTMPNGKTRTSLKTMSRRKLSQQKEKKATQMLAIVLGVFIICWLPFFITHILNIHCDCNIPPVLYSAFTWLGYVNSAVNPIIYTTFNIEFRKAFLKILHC
T4 sequence (P35462 whole entry): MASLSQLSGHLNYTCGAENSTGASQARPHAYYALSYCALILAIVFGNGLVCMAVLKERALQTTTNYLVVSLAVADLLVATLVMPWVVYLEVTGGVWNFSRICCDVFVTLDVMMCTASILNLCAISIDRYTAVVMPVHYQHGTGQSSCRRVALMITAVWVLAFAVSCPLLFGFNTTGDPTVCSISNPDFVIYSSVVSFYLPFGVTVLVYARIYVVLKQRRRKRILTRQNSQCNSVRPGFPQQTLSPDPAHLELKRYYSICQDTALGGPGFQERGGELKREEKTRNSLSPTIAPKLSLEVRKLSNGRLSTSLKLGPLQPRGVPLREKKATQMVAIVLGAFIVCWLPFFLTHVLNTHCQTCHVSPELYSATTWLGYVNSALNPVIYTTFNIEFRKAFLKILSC
T1 sequence (P50130 whole entry): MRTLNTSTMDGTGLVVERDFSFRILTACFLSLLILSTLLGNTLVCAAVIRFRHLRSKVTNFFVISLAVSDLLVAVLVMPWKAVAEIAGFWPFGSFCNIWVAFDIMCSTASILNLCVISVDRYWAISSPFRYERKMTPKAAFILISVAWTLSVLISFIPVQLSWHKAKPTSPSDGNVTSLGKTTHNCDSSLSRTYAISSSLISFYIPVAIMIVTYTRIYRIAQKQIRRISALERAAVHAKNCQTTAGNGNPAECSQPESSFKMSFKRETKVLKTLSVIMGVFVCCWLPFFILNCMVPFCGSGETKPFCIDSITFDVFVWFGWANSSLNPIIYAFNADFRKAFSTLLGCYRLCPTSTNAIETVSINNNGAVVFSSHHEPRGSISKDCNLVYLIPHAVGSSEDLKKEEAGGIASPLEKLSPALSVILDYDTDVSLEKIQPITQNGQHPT

On to `CCCN(CCC)[C@H]1CCn2nccc2C1`, for which the inhibition constant Ki on D(1A) dopamine receptor [1] was > 20 µM; at D(4) dopamine receptor [2] it was 1.7 µM; on D(4) dopamine receptor [3] it was 0.058 µM; on D(2) dopamine receptor [4], 15 µM; on D(2) dopamine receptor [5], 0.18 µM; at D(2) dopamine receptor [6] it was 10 µM. For the same compound, the Ki at D(2) dopamine receptor [7] turned out to be 0.25 µM; at D(3) dopamine receptor [9] it was 0.11 µM; on D(3) dopamine receptor [10], 0.004 µM. On D(3) dopamine receptor [8], this compound returned a concentration for a half-maximal effect (EC50) of 0.0034 µM. The compound also came in with a pKi at D(3) dopamine receptor [11] of 8.4.

As for `CCCN(CCC)C1CCn2ncc(Cl)c2C1` (stereo not given), the Ki at D(1A) dopamine receptor [1] is > 20 µM; on D(4) dopamine receptor [2] it was 6.4 µM; at D(4) dopamine receptor [3] it was 0.2 µM; at D(2) dopamine receptor [4], > 20 µM; on D(2) dopamine receptor [5] it was 0.12 µM; at D(2) dopamine receptor [6] it was 12 µM. Further, the results for the Ki on D(2) dopamine receptor [7], at D(3) dopamine receptor [9] and on D(3) dopamine receptor [10] were 0.21 µM, 0.23 µM and 0.0061 µM, respectively. Also, the EC50 on D(3) dopamine receptor [8] came out at 0.0045 µM.

Turning to `CCCN(CCC)[C@@H]1CCn2nccc2C1`, the inhibition constant (Ki) was > 20 µM on D(2) dopamine receptor [12]; > 20 µM at D(2) dopamine receptor [13]; > 20 µM at D(1A) dopamine receptor [14]; 2.7 µM at D(3) dopamine receptor [15]; 13 µM on D(4) dopamine receptor [16].

Take `CCCN(CCC)C1CCn2ncc(CO)c2C1` (stereo not given): the Ki is > 20 µM on D(2) dopamine receptor [12]; > 20 µM on D(2) dopamine receptor [13]; > 20 µM on D(1A) dopamine receptor [14]; 4 µM on D(3) dopamine receptor [15]; 16 µM at D(4) dopamine receptor [16].

As for `CCCN(CCC)C1CCn2ncc(C=O)c2C1` (stereo not given), the inhibitory constant (Ki) on D(2) dopamine receptor [12] is 5.9 µM; at D(2) dopamine receptor [13], 4 µM; at D(1A) dopamine receptor [14], > 20 µM; at D(3) dopamine receptor [15], 12 µM; on D(4) dopamine receptor [16], 14 µM.

Regarding `CCCN(CCC)C1CCn2ncc(C(=O)OC)c2C1` (stereo not given), the Ki at D(2) dopamine receptor [12] was > 20 µM; on D(2) dopamine receptor [13], > 20 µM; at D(1A) dopamine receptor [14], > 20 µM; at D(3) dopamine receptor [15], 17 µM; on D(4) dopamine receptor [16], > 20 µM.

Take `CCCNC1CCn2ncc(C(=O)OC)c2C1` (stereo not given): the inhibition constant Ki on D(2) dopamine receptor [12] is > 100 µM; at D(2) dopamine receptor [13] it was > 100 µM; on D(1A) dopamine receptor [14] it was > 20 µM; at D(3) dopamine receptor [15] it was 12 µM; at D(4) dopamine receptor [16], 90 µM.

With `CCCN(CCC)C1CCn2nccc2C1` (racemic), the inhibition constant Ki on D(4) dopamine receptor [2] was determined as 1.6 µM; on D(4) dopamine receptor [3], 0.058 µM; on D(2) dopamine receptor [4], 18 µM; at D(2) dopamine receptor [5], 0.22 µM; at D(2) dopamine receptor [6] it was 8.5 µM; on D(2) dopamine receptor [7], 0.16 µM. Further, the Ki on D(1A) dopamine receptor [17] is > 20 µM; at D(3) dopamine receptor [9], 0.2 µM; on D(3) dopamine receptor [10], 0.0067 µM.
